Results: US10919896B2, “Preparation and uses of pyrimidinone derivatives” (Cancer Research Technology Limited, priority 2016, dated 2021)

Key:
Cdc7/Dbf4 = Cdc7/Dbf4 (Homo sapiens, UniProt O00311); experiment: Cdc7 Biochemical Assay Method 3: Cdc7/Dbf4 Enzyme TR-FRET Assay measuring pS40MCM2; conditions: 1 μM ATP, read-out: Biochemical Method 3 (pIC50) (converted)
Procedure: This protocol describes a method for assaying a compounds' ability to inhibit Cdc7 activity by measuring pS40MCM2 levels in a Cdc7/Dbf4 Enzyme TR-FRET Assay.
2.5 nM Cdc7/Dbf4 was incubated with 100 nM of biotin-labelled peptide 35-TDALTS(pS)PGRDLP in the presence of 1 μM ATP at 25° C. for 120 minutes. The phosphorylation of the peptide was detected using TR-FRET. Anti-Mcm2 (pS40) antibody, Terbium anti-rabbit secondary antibody and Streptavidin-Alexa Fluor488 form the detection system.

[1] = system: Cdc7 (pS40MCM2 levels in HCT116 cells); experiment: Cdc7 Cell Pharmacodynamics Assay Method 2B: pS40MCM2 levels in HCT116 cells, 18 hours; format: cell-based; conditions: Homo sapiens, HCT-116, read-out: Biomarker Method 2B (pEC50) (converted)
Excerpt: This protocol describes a method to investigate the inhibition of Cdc7 activity by measuring pS40MCM2 levels in cells, after treatment with compounds.
• HCT116 cells (ATCC, #CCL-247) • McCoys 5A with L-glutamine (Cellgro, #10-050-CV) • 10% FCS (Cellgro, #35-010-CV) • D-PBS without CaCl2 and MgCl2 (Cellgro, #21-031-CV) • Trypsin/EDTA (Cellgro, #25-052-CL) • BSA (Calbiochem, 126593) • Cell Extraction Buffer (Invitrogen FNN0011) • Protease inhibitor cocktail (Sigma P-2714) • PMSF 0.3M stock in DMSO (Sigma P7626) • Antibody-rabbit pMCM2 Ser40 (Abcam, AB133243) • Antibody-goat MCM2 (Bethyl #A300-122A) • Antibody-goat Anti Rabbit IgG HRP (Thermo, 31462) • SuperSignal ELISA Pico Chemiluminescent Substrate (Perbio Science UK Ltd 37069) • 10×PBS (Growcells, MRGF-6236) • Triton X100 (Sigma, P-T8787) • DMSO (Fisher, D128-1) • 2-Propanol (J. T. Baker, 9095-03) Method • Seed 1×10^6 HCT116 cells into each of two 175 cm^2 flask containing 30 mL Cell Growth Media and incubate at 37° C., 5% CO2 for 3 days. • Harvest the cells from one T175 cm^2 flask and count. • Dilute with Cell Growth Media to a cell density of 2×10^5. Dispense 100 μL to each well (20,000 HCT116 cells/well) of TC treated 96-well plate(s). • Allow cells to settle overnight in incubator set at 37° C. and 5% CO2. • Cell treatment: Transfer 0.25 μL/well from the compound plate to the wells of the cell plate(s). This is a 1:400 dilution of compound in the assay. • Once all cells are treated place the cells back to the incubator and incubate for either 6 hours (Method 2A) or 18 hours (Method 2B). • Dilute the capture antibody (total MCM2#A300-122A) 1 in 250 in the required volume of PBS (5 mL per assay plate, plus 5 mL for dead volume) and add 50 μL to each well of a Hybond plate except wells A12 & B12. Seal the plate and incubate at room temperature for a minimum of 2 hours. • Defrost aliquot of Invitrogen Cell Extraction Buffer (FNN0011) on ice and supplement with appropriate volume of both Sigma protease inhibitor cocktail (P-2714) and PMSF (final conc 1 mM from a 1 M stock in DMSO). • After the 6 hour or 18 hour cell treatment time, tap out the media from the assay plates and place them in the −70° C. freezer for at least 5 minutes. • Flick out the remaining liquid in the previously prepared capture Ab plate(s) and add 200 μL 2% BSA per well. Incubate for 1 hour at room temperature. • Remove plates from freezer and add 20 μL of ice cold complete lysis buffer. Incubate cells for 30 minutes at 4° C. • Add 30 μL per well 2% BSA • At the end of the 1 hour incubation, wash the Capture/ELISA plate(s) with Wash Buffer on the BioTek plate washer. • Transfer 40 μL per well of the lysis plate(s) to the same wells in the Capture/ELISA plate. Incubate cells overnight at 4° C. • At the end of the overnight incubation, wash the ELISA plate(s) with Wash Buffer on BioTek plate washer. • Prepare Detection Antibody Buffer and dispense 50 μL to all wells of ELISA plate(s) except wells G1 & H1. Cover plate and incubate at room temperature for 2 hours with gentle shaking. • At the end of the 2 hour incubation, wash the ELISA plate(s) with Wash Buffer on the BioTek plate washer. • Prepare the Conjugated Antibody Buffer and dispense 50 μL to all wells of ELISA plate(s). • Cover the plate and incubate at room temperature for 1 hour with gentle shaking. • At the end of the 1 hour incubation, wash the ELISA plate(s) with Wash Buffer on the BioTek plate washer. • Prepare Substrate Buffer and dispense 50 μL to all wells of ELISA plate(s). • Incubate for a minimum of 10 minutes and read plates on the EnVision 2100 Multilabel Reader (Mirror: Luminescence (404) & Luminescence 700 (212); Measurement Height: 6.5 mm; Measurement Time: 0.2 s). Method 3

[2] = system: Cdc7 (pS53MCM2 levels in HCT116 cells); experiment: Cdc7 Cell Pharmacodynamics Assay Method 1: pS53MCM2 levels in HCT116 cells, 6 hours; format: cell-based; conditions: Homo sapiens, HCT-116, 6 h, read-out: Biomarker Method 1 (pEC50) (converted)
Excerpt: This protocol describes a method to investigate the inhibition of Cdc7 activity of compounds by measuring pS53MCM2 levels in cells after treatment.
• HCT116 cells (wild type P53 positive) • McCoys 5A media (PAA Laboratories Ltd, E15-022) • 10% FCS (Sera Laboratories International Ltd, EU000F Batch:108005) • 100× L-Glutamine (Invitrogen, 25030-024) • D-PBS without CaCl2 and MgCl2 (Invitrogen, ref 14190-094) • Trypsin/EDTA (Invitrogen 25300-054) • 2% BSA in PBS • Cell Extraction Buffer (Invitrogen FNN0011) • Protease inhibitor cocktail (Sigma P-2714) • PMSF 0.3M stock in DMSO (Sigma P7626) • Antibody-rabbit pMCM2 Ser53 (Bethyl #A300-756A) • Antibody-goat MCM2 (Bethyl #A300-122A) • Antibody-goat Anti Rabbit IgG HRP (Perbio Science UK Ltd 31462) • 1×PBS • FACE Wash buffer (0.02% Triton X100 in 1×PBS) • SuperSignal ELISA Pico Chemiluminescent Substrate (Perbio Science UK Ltd 37070) Method • 72 hours prior to the start of the experiment plate 1×10^6 HCT 116 cells in a 150 cm^2 flask in complete McCoys 5A media (+10% FCS+1× L-glutamine). • Plate 20,000 HCT116 cells per well in standard TC treated 96 well plate in 100 μL complete McCoys 5A media. • Allow cells to settle overnight in incubator set at 37° C. and 5% CO2. • Remove intermediate plate from fridge and place at 37° C. overnight to allow to equilibrate. • Cell treatment: cell assay plate 100 μL; daughter to cell transfer volume 3.33 μL; daughter volume 45 μL; mother plate to daughter volume 5 μL. • Once all cells are treated remove the cells to the incubator and incubate for 6 hours. • Dilute the capture antibody (total MCM2#A300-122A) 1 in 250 in the required volume of PBS (5 mL per assay plate) and add 50 μL to each well of a Hybond plate excluding wells 12E to 12H. In these wells add 50 μL PBS. Seal the plate and incubate at room temperature for a minimum of 2 hours. • Defrost aliquot of Invitrogen Cell Extraction Buffer (FNN0011) on ice and supplement with appropriate volume of both Sigma protease inhibitor cocktail (P-2714) and PMSF (final conc 1 mM from a 1 M stock in DMSO). • After the 6 hour cell treatment time tap out the media from the assay plates and place them in the −70° C. freezer for at least 5 minutes. • Remove plates from freezer and add 20 μL of ice cold complete lysis buffer on ice. Incubate cells for 30 minutes at 4° C. • Add 80 μL per well 2% BSA. • Transfer 80 μL from the lysis plate to the same wells in the capture/ELISA plate. Cover with plate seal and incubate plates overnight at 4° C. • Wash plates with PBS, remove any residual remaining liquid and add 50 μL per well of pMCM2 Ser53 antibody (#A300-756A) diluted 1 in 100 in 2% BSA. Cover plate and incubate at room temperature for 2 hours with gentle shaking. • Wash plates with PBS, remove any residual remaining liquid and Incubate with 50 μL goat anti rabbit antibody (1 in 800 dilution in 2% BSA) for 1 hour at room temperature. • Wash plates with PBS, remove any residual remaining liquid and add 50 μL mixed SuperSignal Pico substrate. • Incubate each plate for 5 minutes at room temperature shielding the plates from direct light (with a cover plate). Read plates with the luminescent detection. Method 2A and 2B

Cdc7/ASK = Cdc7/ASK (Homo sapiens, UniProt O00311); experiment: Cdc7 Biochemical Assay Method 1: 384 well ELISA, whole protein substrate MCM2, antibody against Phospho MCM2 (S53); set-up: purchased; conditions: 2 μM ATP, read-out: Biochemical Method 1 (pIC50) (converted)
Chain of Cdc7/ASK (O00311 whole entry): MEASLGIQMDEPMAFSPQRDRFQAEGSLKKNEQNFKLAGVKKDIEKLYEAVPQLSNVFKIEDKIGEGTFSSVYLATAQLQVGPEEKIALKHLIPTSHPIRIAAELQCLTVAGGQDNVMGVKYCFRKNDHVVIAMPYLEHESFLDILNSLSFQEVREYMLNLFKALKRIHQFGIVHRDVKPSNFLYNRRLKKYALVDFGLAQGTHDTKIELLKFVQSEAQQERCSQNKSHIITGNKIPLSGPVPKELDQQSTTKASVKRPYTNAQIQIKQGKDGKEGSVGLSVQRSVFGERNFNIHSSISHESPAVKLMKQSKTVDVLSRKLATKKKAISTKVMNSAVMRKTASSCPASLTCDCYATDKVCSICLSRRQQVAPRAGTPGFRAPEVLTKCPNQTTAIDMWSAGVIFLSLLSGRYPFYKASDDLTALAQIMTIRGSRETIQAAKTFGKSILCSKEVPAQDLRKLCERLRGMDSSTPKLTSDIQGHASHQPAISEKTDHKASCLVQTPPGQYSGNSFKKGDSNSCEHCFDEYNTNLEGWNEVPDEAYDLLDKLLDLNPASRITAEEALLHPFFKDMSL
Chain of Cdc7/ASK (Q9UBU7 whole entry partner): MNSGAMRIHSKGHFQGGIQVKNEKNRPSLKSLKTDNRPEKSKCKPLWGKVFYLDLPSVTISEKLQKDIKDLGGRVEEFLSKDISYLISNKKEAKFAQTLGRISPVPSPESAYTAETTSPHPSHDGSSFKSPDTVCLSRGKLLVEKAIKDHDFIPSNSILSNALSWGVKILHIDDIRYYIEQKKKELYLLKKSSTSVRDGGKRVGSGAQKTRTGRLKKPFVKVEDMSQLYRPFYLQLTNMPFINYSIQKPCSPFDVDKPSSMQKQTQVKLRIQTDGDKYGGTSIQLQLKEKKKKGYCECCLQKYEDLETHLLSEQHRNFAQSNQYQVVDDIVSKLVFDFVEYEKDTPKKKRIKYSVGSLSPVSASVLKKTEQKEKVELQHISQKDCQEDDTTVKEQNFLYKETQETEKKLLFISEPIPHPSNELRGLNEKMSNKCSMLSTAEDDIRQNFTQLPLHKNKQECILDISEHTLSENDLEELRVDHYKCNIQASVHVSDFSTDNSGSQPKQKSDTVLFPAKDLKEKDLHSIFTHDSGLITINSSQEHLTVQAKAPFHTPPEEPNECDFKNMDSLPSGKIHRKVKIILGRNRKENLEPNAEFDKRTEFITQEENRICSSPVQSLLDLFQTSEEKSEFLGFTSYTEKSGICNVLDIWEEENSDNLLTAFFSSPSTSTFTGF
Method in brief: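 MCM2 protein substrate was coated on nickel-chelate plates, then Cdc7/ASK was added with 2 μM ATP in 50 mM Tris-HCl pH 8.5, 10 mM MgCl2, 1 mM DTT, 4% DMSO, 90 min at room temperature. Phospho-MCM2 (S53) was detected by ELISA with an AP secondary and PNPP absorbance. IC50 was derived from % inhibition versus no-compound and no-enzyme controls.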

Chain of Cdc7/Dbf4 (O00311 whole entry): as the sequence (O00311 whole entry) above
Chain of Cdc7/Dbf4 (Q9UBU7 whole entry partner): as the sequence (Q9UBU7 whole entry partner) above

SMILES | IC50 (Cdc7/Dbf4) | EC50 [1] | EC50 [2] | IC50 (Cdc7/ASK)
O=c1[nH]c(-c2ccnc(F)c2)nc(N2CCCC23CCCNC3)c1Cl (stereo not shown) [Compound 260] | 0.00141 µM | 0.0724 µM |  | 
CC1OCCN(c2nc(-c3ccnc(F)c3)[nH]c(=O)c2Cl)C1C (stereo not shown) [Compound 359] | 0.002 µM | 0.0275 µM |  | 
CC1CCNCCN1c1nc(-c2ccnc(F)c2)[nH]c(=O)c1Cl (stereo not shown) [Compound 351] | 0.00135 µM | 0.138 µM |  | 
O=c1[nH]c(-c2ccnc(F)c2)nc(N2CCN3CCC2CC3)c1Cl [Compound 293] | 0.000363 µM | 0.0295 µM |  | 
O=C1COCCN(c2nc(-c3ccnc(F)c3)[nH]c(=O)c2Cl)C1 [Compound 208] | 0.00049 µM | 0.0646 µM |  | 
O=c1[nH]c(-c2ccnc(F)c2)nc(N2CCNC(C(F)(F)F)CC2)c1Cl (stereo not shown) [Compound 296] | 0.00759 µM | 1.02 µM |  | 
O=c1[nH]c(-c2ccnc(F)c2)nc(N2CCCC3NCCC32)c1Cl (stereo not shown) [Compound 275] | 0.000794 µM | 2.09 µM |  | 
O=c1[nH]c(-c2ccnc(F)c2)nc(N2CC[C@@H]3CNC[C@@H]32)c1Cl [Compound 261] | 0.000813 µM | 0.537 µM |  | 
O=c1[nH]c(-c2ccnc(F)c2)nc(N2CCN3CCC[C@H]3C2)c1Cl [Compound 348] | 0.00195 µM | 0.257 µM |  | 
O=c1[nH]c(-c2ccnc(F)c2)nc(N2CCC3(COC3)C2)c1Cl [Compound 284] | 0.00209 µM | 0.389 µM |  | 
N#C[C@@H]1CNCCN1c1nc(-c2ccnc(F)c2)[nH]c(=O)c1Cl [Compound 345] | 0.00129 µM | 1.74 µM |  | 
C[C@@H]1CN(c2nc(-c3ccnc(F)c3)[nH]c(=O)c2Cl)[C@H](C)CO1 [Compound 357] | 0.00209 µM | 0.2 µM |  | 
O=c1[nH]c(-c2ccncc2)nc(N2CCN(CCO)CC2)c1Cl [Compound 125] |  |  | 0.912 µM | 0.0407 µM
O=c1[nH]c(-c2ccncc2)nc(N2CCCN(CC(F)(F)F)CC2)c1Cl [Compound 142] |  |  | 0.661 µM | 0.0155 µM
CN1CCN(c2nc(-c3ccncc3)[nH]c(=O)c2Cl)CC1 [Compound 81] |  |  | 0.195 µM | 0.00933 µM
CC1CCN(c2nc(-c3ccncc3)[nH]c(=O)c2Cl)CC1 [Compound 122] |  |  | 0.417 µM | 0.00661 µM
O=c1[nH]c(-c2ccncc2)nc(N2CCNC3(CCC3)C2)c1Cl [Compound 158] |  |  | 1.74 µM | 0.0195 µM
O=c1[nH]c(-c2ccncc2)nc(N2CC3C(C2)C3(F)F)c1Cl (stereo not shown) [Compound 134] |  |  | 0.692 µM | 0.0191 µM
CS(=O)(=O)N1CCCN(c2nc(-c3ccncc3)[nH]c(=O)c2Cl)CC1 [Compound 145] |  |  | 0.269 µM | 0.00251 µM
COc1ccc(C2CN(c3nc(-c4ccncc4)[nH]c(=O)c3Cl)CCN2)cc1 (stereo not shown) [Compound 169] |  |  | 0.562 µM | 0.0302 µM
O=c1[nH]c(-c2ccncc2)nc(N2CCNC(c3cccs3)C2)c1Cl (stereo not shown) [Compound 177] |  |  | 0.214 µM | 0.00513 µM
O=c1[nH]c(-c2ccncc2)nc(N2C3CCCC2COC3)c1Cl [Compound 154] |  |  | 0.0631 µM | 0.00245 µM
C#CCN1CCN(c2nc(-c3ccncc3)[nH]c(=O)c2Cl)CC1 [Compound 150] |  |  | 0.427 µM | 0.0141 µM
O=c1[nH]c(-c2ccncc2)nc(N2CCC(C(F)(F)F)C2)c1Cl (stereo not shown) [Compound 135] |  |  | 0.661 µM | 0.0234 µM
O=c1[nH]c(-c2ccncc2)nc(N2CCOC(C(F)(F)F)C2)c1Cl (stereo not shown) [Compound 159] |  |  | 0.209 µM | 0.00661 µM
C[C@H]1CN(c2nc(-c3ccncc3)[nH]c(=O)c2Cl)CCN1CC(F)(F)F [Compound 181, 5-chloro-4-[(3S)-3-methyl-4-(2,2,2-trifluoroethyl)piperazin-1-yl]-2-(4-pyridyl)-1H-pyrimidin-6-one] |  |  | 0.132 µM | 0.0024 µM
